Data: patent US20250034161A1, “SPIROCYCLIC COMPOUND AS KRAS-G12C INHIBITOR” (Shanghai Euregen Biopharma Co., Ltd., priority 2020, published 2025)

Experiments:
[1] = Whole blood stability assay, rat whole blood; format: in vitro ADME; conditions: 37° C.
Description: • 1. Test purpose: to determine the whole blood stability of the compounds by monitoring the clearance rate of the parent compound after incubation of some of the example compounds of the invention with dog and rat whole blood. • 2. […] Test method:
Then, the stock solution of the test compound was diluted to 1 mmol/L and 0.2 mmol/L with 70% acetonitrile aqueous solution, respectively, as working solution.
The working solution was added to the whole blood. The concentration of each test compound was 5 μmol/L. 90 μL was taken and then mixed evenly with 90 μL of water. Then 600 μL of acetonitrile termination solution containing propranolol as internal standard was added. Incubated at 37° C. in a water bath and shook gently. At 30, 60, 120 and 240 minutes, 90 μL of each mixture was placed on a clean 96-well plate prefilled with 90 μL of water, mixed well, and then 600 μL of acetonitrile termination solution containing propranolol as internal standard was added and centrifuged at 5000 g for 15 min. 80 μL of the supernatant was taken and placed in a 96-well plate preloaded with 160 μL of ultrapure water, then analyzed by LC-MS/MS.

[2] = target: T1, CYP1A2 (Homo sapiens, UniProt P05177); test: CYP inhibition test, human liver microsomes, CYP1A2
T1 sequence (P05177 1-516): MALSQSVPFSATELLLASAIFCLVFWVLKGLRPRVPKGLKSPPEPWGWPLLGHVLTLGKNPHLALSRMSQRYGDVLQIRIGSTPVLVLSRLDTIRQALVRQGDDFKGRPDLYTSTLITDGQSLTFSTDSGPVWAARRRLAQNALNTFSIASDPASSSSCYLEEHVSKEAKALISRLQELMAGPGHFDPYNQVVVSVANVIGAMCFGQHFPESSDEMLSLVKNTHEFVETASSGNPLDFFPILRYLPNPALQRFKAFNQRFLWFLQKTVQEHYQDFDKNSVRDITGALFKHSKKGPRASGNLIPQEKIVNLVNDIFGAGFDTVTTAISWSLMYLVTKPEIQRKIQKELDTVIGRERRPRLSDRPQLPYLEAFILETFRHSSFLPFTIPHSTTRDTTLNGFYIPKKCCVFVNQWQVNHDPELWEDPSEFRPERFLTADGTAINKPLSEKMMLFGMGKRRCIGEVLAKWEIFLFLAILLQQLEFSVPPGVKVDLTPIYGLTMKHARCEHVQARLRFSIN
Description: (§1) • 1. Test purpose: to evaluate the inhibitory ability of some of the example compounds of the present invention against CYP1A2, 2B6, 2C8, 2C9, 2C19, 2D6 and 3A4 via human liver microsomes. • 2. […] Test method:
• 1. K/Mg buffer: the components were 0.1 mol/L potassium phosphate and 5 mmol/L magnesium chloride with pH 7.4±0.1, preheated. • 2. Solution of the test compound: the test compound was dissolved in dimethyl sulfoxide to prepare a stock solution of 10 mmol/L. 8 μL of 10 mmol/L stock solution was transferred to a 96-well plate containing 12 μL of acetonitrile as the highest concentration point, at 3-fold dilution, for 8 concentrations. • 3. NADPH solution: 66.7 mg of NADPH was dissolved in 10 mL of 0.1 mol/L K/Mg buffer to obtain 8 mmol/L NADPH solution with pH 7.4. • 4. Human liver microsomal stock solution: human liver microsomes were dissolved in 0.1 mol/L K/Mg buffer to obtain 20 mg/mL stock solution. • 5. Human liver microsomal working solution: 10 μL of 20 mg/mL human liver microsomal stock solution was taken and added into 990 μL of 0.1 mol/L K/Mg buffer to prepare 0.2 mg/mL human liver microsomal solution. • 6. […]

[3] = target: CYP 2D6 (Homo sapiens, UniProt P10635); test: CYP inhibition test, human liver microsomes, CYP2D6
Sequence of CYP 2D6 (P10635 whole entry): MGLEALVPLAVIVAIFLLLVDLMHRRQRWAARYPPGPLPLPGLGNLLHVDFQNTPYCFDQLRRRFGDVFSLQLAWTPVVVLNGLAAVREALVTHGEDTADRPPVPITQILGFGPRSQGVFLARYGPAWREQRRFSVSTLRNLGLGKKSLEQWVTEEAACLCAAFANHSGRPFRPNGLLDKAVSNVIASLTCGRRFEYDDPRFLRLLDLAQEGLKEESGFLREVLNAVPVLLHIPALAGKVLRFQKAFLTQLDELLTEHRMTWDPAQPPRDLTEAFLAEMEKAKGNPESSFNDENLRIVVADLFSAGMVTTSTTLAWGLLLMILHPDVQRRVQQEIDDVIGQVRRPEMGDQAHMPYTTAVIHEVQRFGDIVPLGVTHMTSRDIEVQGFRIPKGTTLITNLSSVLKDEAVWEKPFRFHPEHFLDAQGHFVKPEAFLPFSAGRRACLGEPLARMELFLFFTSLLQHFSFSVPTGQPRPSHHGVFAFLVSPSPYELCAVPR
Description: as §1
• 1. K/Mg buffer: the components were 0.1 mol/L potassium phosphate and 5 mmol/L magnesium chloride with pH 7.4±0.1, preheated. • 2. Solution of the test compound: the test compound was dissolved in dimethyl sulfoxide to prepare a stock solution of 10 mmol/L. 8 μL of 10 mmol/L stock solution was transferred to a 96-well plate containing 12 μL of acetonitrile as the highest concentration point, at 3-fold dilution, for 8 concentrations. • 3. […] Human liver microsomal stock solution: human liver microsomes were dissolved in 0.1 mol/L K/Mg buffer to obtain 20 mg/mL stock solution. • 5. Human liver microsomal working solution: 10 μL of 20 mg/mL human liver microsomal stock solution was taken and added into 990 μL of 0.1 mol/L K/Mg buffer to prepare 0.2 mg/mL human liver microsomal solution. • 6.
600 μL of 0.2 mg/mL human liver microsomal solution and 3 μL of stepwise diluted test compound solution were added to the 96-well plate. 30 μL of the above solution was added on the 96-well plate followed by the addition of 15 μL of the corresponding substrate solution. […]

| Compound | half-life at 5 μmol/L [1] [h] | IC50 [2] [µM] | IC50 [3] [µM] |
| --- | --- | --- | --- |
| C=CC(=O)N1CCN(c2nc(=O)n(-c3c(C)ccnc3C(C)C)c3nc(-c4c(O)cccc4F)c(F)cc23)[C@@H](C)C1 [AMG510] | 1.85 | > 10 | > 10 |
| C=C(F)C(=O)N1CCN(c2nc(OC[C@@H]3CCCN3C)nc3c2CCN(c2cccc4cccc(Cl)c24)C3)C[C@@H]1CC#N [MRTX849] | 13.1 | > 10 | 9.72 |
